Test results from patent publication US20200297722A1, “pH-Modulated Formulations for Pulmonary Delivery” (GRIFOLS, S.A., priority 2009, published 2020).

Legend:
[1] = calculated gallium concentration and precipitation in lung fluid after one AERx strip; set-up: species or system human
Source text: Thus, one would expect that there would be a depot-like effect in the lung in terms of the release of gallium from the solid state over time. This would result in a delayed absorption profile of gallium into the bloodstream, with a reduced CMAX and delayed TMAX. This would also reduce or eliminate side effects resulting from high systemic concentrations.

[2] = pH 7.4 and 25° C.; cited from earlier work
[3] = aqueous solubility of gallium as a function of pH; type: physicochemical
Source text: Gallium is a semi-metallic element in group 13 (IIIa) of the periodic table. Gallium is trivalent in aqueous solution (Ga^3+). The free hydrated ion Ga^3+hydrolyzes nearly completely at pH values close to neutral, readily forming highly insoluble amorphous Ga(OH)3. In addition to precipitating as hydroxides and oxyhydroxides , Ga will also form highly insoluble phosphates at pH values close to neutral. L R Bernstein (1998) provides a brief review of the solution chemistry of gallium. […] At low and high pH values, gallium has many orders of magnitude greater solubility. […] This difference in solubility can be exploited in an inhalation product by formulating gallium or its salts (e.g., gallium nitrate) at a very low or very high pH.

[4] = cited from earlier work
[5] = in lung fluid at ~pH 7.4, assumed deposition

SMILES	resulting gallium concentration in lung fluid ([1]; assumed: 25 μL of pH 2 solution equilibrated to ~pH 7.4 in 20 mL lung fluid) [µM]	excess of concentration over equilibrium solubility at pH 7.4 ([1]; assumed: 25 μL of pH 2 solution in 20 mL lung fluid) [fold]	gallium likely to precipitate out of solution [1, 5] [%]	gallium remaining soluble [1, 5] [%]	total aqueous solubility of gallium [2] [µM]	times greater solubility than at pH 7.4 ([3]; pH 2 versus pH 7.4)	times greater solubility than at pH 7.4 ([3]; pH 10 versus pH 7.4) [times]	solubility in water [4]
[Ga] [gallium]	~12.5	~12.5	96	8	~1	~10,000 times	~500	–
NC[C@H]1O[C@H](O[C@H]2[C@H](O)[C@@H](O[C@H]3O[C@H](CO)[C@@H](O)[C@H](N)[C@H]3O)[C@H](N)C[C@@H]2N)[C@H](N)C[C@@H]1O [tobramycin]	–	–	–	–	–	–	–	very soluble in water
